Data reported in US10757944B2, “Ozone treatment for elimination of pathogens” (priority 2016, dated 2020).

Key:
[1] = Pesticide residue on hemp flower after ozone treatment (AOAC official method 2007.01); assay type: physicochemical; conditions: for Sample 1: residue on pesticide treated hemp exposed to ozone / Sample 2: residue on pesticide treated hemp exposed to ozone / Sample 3: residue on pesticide treated hemp exposed to ozone: 200 ppm ozone for 20 minutes; for average reduction of pesticide across the three samples tested: hemp, 20 minutes at 200 ppm ozone; for Control: residue on pesticide treated hemp not exposed to ozone: no ozone exposure
Procedure: The ability of ozone to reduce pesticide residue using an embodiment of a disclosed pathogen reduction device was evaluated. In this series of experiments, Myclobutanil and Bifenazate were purchased in liquid formulations (Myclobutanil at 19.7% from Dow AgroSciences as Eagle® 20EW and Bifenazate at 22.6% from Chemtura Corporation as Floramite® SC). The pesticides were sprayed on homogenized hemp flower and air dried. Dried hemp flower with pesticide was then exposed to treatment with 200 ppm of ozone for 20 minutes. Non pesticide treated hemp, pesticide treated hemp, and pesticide treated hemp that was exposed to ozone were analyzed by spectrometry using AOAC official method 2007.01. The results are disclosed below in Table 3 were Matrix Blank is non pesticide treated hemp (negative control), Control is pesticide treated hemp that was not exposed to ozone, and Sample 1, Sample 2, and Sample 3 are three samples of pesticide treated hemp that was exposed to ozone at 200 ppm for 20 minutes.

[2] = Cannabinoid and terpene content of cannabis flower before and after ozone exposure; assay type: physicochemical; conditions: for % Change (decrease): 60 minute exposure to 200 ppm of ozone vs before; for % After Ozone Exposure (60 minutes): content of cannabis flower after 60 minute exposure to 200 ppm of ozone; for % Before Ozone Exposure (0 minutes): content of cannabis flower before exposure
Procedure: Cannabinoid and terpene content of cannabis flower was measured before exposure to 200 ppm of ozone in an embodiment of a disclosed pathogen reduction device and after a 60 minute exposure. The results are disclosed in Table 7 by the different cannabinoids and terpenes measured.

Row | Structure (SMILES) | Sample 1: residue on pesticide treated hemp exposed to ozone [1] | Sample 2: residue on pesticide treated hemp exposed to ozone [1] | Sample 3: residue on pesticide treated hemp exposed to ozone [1] | average reduction of pesticide across the three samples tested [1] | Control: residue on pesticide treated hemp not exposed to ozone [1] | % Change (decrease) [2] | % After Ozone Exposure (60 minutes) [2] | % Before Ozone Exposure (0 minutes) [2]
1 | COc1ccc(-c2ccccc2)cc1NNC(=O)OC(C)C [Bifenazate] | 0.28 mg/kg | 0.21 mg/kg | 0.22 mg/kg | 0.1 ppm | 0.34 mg/kg | – | – | –
2 | CCCCCc1cc2c(c(O)c1C(=O)O)C=CC(C)(CCC=C(C)C)O2 (stereo not shown) [CBCA] | – | – | – | – | – | 0.28% | 0.102% | 0.105%
3 | C=C(C)[C@@H]1CCC(C)=C[C@H]1c1c(O)cc(CCCCC)c(C(=O)O)c1O [CBDA] | – | – | – | – | – | 5.4% | 0.035% | 0.037%
4 | CCCCCc1cc(O)c(C/C=C(\C)CCC=C(C)C)c(O)c1C(=O)O [CBGA] | – | – | – | – | – | 13.4% | 0.552% | 0.638%
5 | CCCCCc1cc2c(c(O)c1C(=O)O)-c1cc(C)ccc1C(C)(C)O2 [CBNA] | – | – | – | – | – | 0.04% | 0.0458% | 0.046%
6 | CCCCC(C#N)(Cn1cncn1)c1ccc(Cl)cc1 (stereo not shown) [Myclobutanil] | 0.39 mg/kg | 0.28 mg/kg | 0.28 mg/kg | 0.18 ppm | 0.5 mg/kg | – | – | –
7 | CCCCCc1cc2c(c(O)c1C(=O)O)[C@@H]1C=C(C)CC[C@H]1C(C)(C)O2 [THCA] | – | – | – | – | – | 7.1% | 15.7% | 16.9%
8 | CCCc1cc2c(c(O)c1C(=O)O)[C@@H]1C=C(C)CC[C@H]1C(C)(C)O2 [THCVA] | – | – | – | – | – | 1.2% | 0.076% | 0.077%
9 | CCCCCc1cc(O)c2c(c1)OC(C)(C)[C@@H]1CCC(C)=C[C@@H]21 [THC] | – | – | – | – | – | 9.2% | 0.680% | 0.749%
